This is an account of results in patent US8546430B2, “Thalidomide analogs” (P2D, Inc., priority 2003, dated 2013).

For orientation: IC50 means the concentration needed to halve the response being measured. A higher IC50 goes with lower potency. A word on the inhibition: it is the percentage by which the read-out fell short of the control. A lower inhibition goes with a response near the control. Usually melting point stands for the temperature, or range, at which the solid turns liquid.

Each structure is given as a SMILES string. “Also recorded” adds a separate entry of the source.

One data set has as its system TNF-α. Put plainly: Inhibition of LPS-induced TNF-α secretion in human PBMC (ELISA). Type of data set: cell-based. To be noted: for IC50 / inhibition at 30 µM: Homo sapiens, LPS-induced TNF-α production in PBMC; for TNF-α inhibitory activity (in words): LPS-stimulated PBMC; for Fold more active than thalidomide 201: inhibition of TNF-α synthesis, from IC50 values. Here is the method: (§1) The action of the these thiothalidomide analogs in inhibiting TNF-α secretion was assessed in human peripheral blood mononuclear cells (PBMC) and the results are shown in Table 1. Freshly prepared PBMCs were utilized in all studies. Blood, 40 ml, was drawn from a volunteer, immediately mixed with 50 U/ml Na heparin and was diluted to 50 ml total volume with sterile PBS. Samples, 20 ml, of this preparation then were layered on 20 ml Ficoll-Paque and were centrifuged (800 g, 20 min). The Ficoll/serum interface, containing PBMCs, was collected, diluted to 200 ml with PBS, and then was centrifuged (800 g, 15 min) to pellet the cells. Thereafter, the recovered pellet was re-suspended in 37° C. tissue culture medium (RPMI/1 mM Sodium pyruvate/10% heat inactivated FBS/2 mM Glutamax) and placed on ice. Recovered cells were counted, pipetted (200 ul of 5×10^5/ml) into 96 well plates, and incubated for an hour (37° C., 5% CO2). Thereafter, appropriate concentrations of test compounds or vehicle (10 ul DMSO) were added to duplicate wells. Following a further hour of incubation, a 10 ul sample of lipopolysaccharide (LPS) (100 ng/ml in supplemented medium) or vehicle was added to induce stimulated and unstimulated cells, respectively, and the cells were incubated overnight. Sixteen hours later, supernatants were collected for quantification of TNF-α levels by ELISA assay (Pierce-Endogen human TNF-α mini kit, Rockford, Ill.) and the use of specific capture and detection monoclonal antibodies, M303E and M302B (Pierce-Endogen), respectively. ELISA plates were read at λ=450 nm and TNF-α levels were determined from a six-point calibration curve that was run concurrently with the test samples. The effect of test drug concentrations on the cellular viability of PBMCs was assessed by MTS assay (Promega, Madison, Wis.) of the cells that provided the supernatant samples assayed for TNF-α levels, described above. It should be understood that this method can be used to test any of the disclosed compounds as a screening assay for readily determining their TNF-α modulating activity, and for selecting them for use in the disclosed method of treating a subject.

Another data set relates to 3′-UTR of human TNF-α. Put plainly: Luciferase reporter assay, RAW264.7 cells with vs without the TNF-α 3′-UTR. The data set is classed as cell-based. To be noted: mouse macrophage line RAW264.7, 16 h; FIG. 1. Here is the method:
To determine the involvement of the 3′-UTR in the action of the thalidomide analogs, their ability to inhibit reporter gene activity in cells containing the TNF-α3′-UTR versus a control vector was assessed. This cell-based assay utilized two stably transfected cell lines derived from the mouse macrophage line, RAW264.7. One line, designated “luciferase only” expressed a luciferase reporter construct without any UTR sequences. The other line, designated “luciferase+TNF-α UTR” expressed a luciferase reporter construct with the entire 3′-UTR of human TNF-α inserted directly downstream of the luciferase coding region. Compounds were added in a concentration-dependent manner, and at the end of the incubation period (16 h, 37° C., 5% CO2) the media was removed, cells were lysed and luciferase activity was assayed with Steady-glo luciferase assay reagent (Promega) according to the supplier's directions. Background was subtracted and data from this assay was expressed as a ratio of the +3′-UTR to −3′-UTR (control) values, and was expressed as a percent as shown in FIG. 1. In this manner, compounds that show a differential effect on the two cell lines, with and without a 3′-UTR, are highlighted. […] All agents lowered luciferase reporter activity in cells stably expressing the 3′-UTR.
In general terms: Reporter assays use an easily measured gene product as a stand-in for the process of interest.

The next data set relates to PBMC. Description: Cellular viability of PBMCs by MTS assay. The data set is classed as cell-based, human. Here is the method:
as §1
Background: Tetrazolium assays rely on reduction of a dye to a coloured formazan, in cell work by metabolically active cells.

For another data set, the system named is rat aortic ring. Description: Rat aortic ring microvessel growth assay. Type of data set: cell-based. The following applies: 0.1-20 μg/ml daily for 4 days; FIGS. 2-11. Here is the method: The angiogenesis modulating activity of representative compounds was assessed in a rat aortic ring microvessel growth assay. Briefly, twelve-well tissue culture plates were coated with 250 μl of Matrigel (Becton-Dickinson, Bedford, Mass.) and allowed to gel for 30 min at 37° C. and 5% CO2. Thoracic aortas were excised from 8- to 10-week-old male Sprague Dawley rats. After careful removal of fibroadipose tissues, the aortas were cut into 1-mm-long cross-sections, placed on Matrigel-coated wells, and covered with an additional 250 μl of Matrigel. After the second layer of Matrigel had set, the rings were covered with EGM-II and incubated overnight at 37° C. and 5% CO2. EGM-II consists of endothelial cell basal medium (EBM-II; Clonetics, San Diego, Calif.) plus endothelial cell growth factors provided as the EGM-II Bulletkit (Clonetics). The culture medium was subsequently changed to EBM-II supplemented with 2% fetal bovine serum, 0.25 μg/ml amphotericin B, and 10 μg/ml gentamicin. Aortic rings were treated daily with either the vehicle (0.5% DMSO), carboxyamidotriazole (CAI, 12 μg/ml), thalidomide or thalidomide analogs (0.1-20 μg/ml) for 4 days and photographed on the 5th day using a ×2.5 objective. CAI, a known antiangiogenic agent, was used at higher than clinically achievable concentration as a positive control. Experiments were repeated four times using aortas from four different rats. The area of angiogenic sprouting, reported in square pixels, was quantified using Adobe PhotoShop. Further details of the method are provided in Luzzio et al., J Med Chem.; 46:3793-9, 2003, which is incorporated by reference herein. It should be understood that this method can be used as an assay to rapidly select compounds having a desired angiogenic or anti-angiogenic effect, for example, for use in the disclosed methods of treating a subject.

Take `O=C1CCC(N2C(=O)c3ccccc3C2=O)C(=O)N1` (stereo not shown) [Compound 201, Thalidomide]: the “Inhibition of TNF-α secretion at 30 μM (in words)” value in the data set on TNF-α (30 μM) is given as “entirely lacked activity”. Also, in the data set on TNF-α, the IC50 is about 200 µM. For the same compound, the “Concentration required for significant activity” value in the data set with TNF-α (inhibition of TNF-α secretion) was 100 µM. The “Luciferase reporter activity, +3′-UTR versus −3′-UTR cells (in words)” value with 3′-UTR of human TNF-α is recorded as “lacked activity at 50 μM”.

The compound `O=C(O)CCC(C(=O)O)N1C(=O)c2ccccc2C1=S` (stereo not shown) [Compound 211, 2-(1,3-Dihydro-1-oxo-3-thioxo-2H-isoindol-2-yl)-pentanedioic acid] yielded a melting point of 157 °C. In the data set on TNF-α, the IC50 was over 30 µM and the “TNF-α inhibitory activity (in words)” value is “lowered potency”. Moreover, the inhibition at 30 µM with TNF-α (30 μM) was found to be 20%. In the data set with PBMC, this compound showed a Cell viability at 0.3 μM of 93%, a Cell viability at 3 μM of 93% and a Cell viability at 30 μM of 86%. Also, the “Angiogenic modulating activity (in words)” value in the data set on rat aortic ring is recorded as “angiogenic activity at all concentrations tested”.

`O=C1c2ccccc2C(=O)N1C1CCC(=S)NC1=S` (stereo not shown) [Compound 213, 2-(2,6-Dithioxo-3-piperidinyl)-1H-isoindole-1,3(2H)-dione]: the melting point lay in the range of 263 to 265 °C. Also, in the data set on TNF-α, it took 20 µM to reach half-maximal inhibition (IC50) and the “TNF-α inhibitory activity (in words)” value is given as “less active than dithioglutarimide 219”. The inhibition at 30 µM in the data set on TNF-α (30 μM) is 52%. Besides, in the data set with PBMC, the “Toxicity / cytotoxicity (in words)” value is recorded as “induced increasing cytotoxicity at higher concentrations; also recorded: induces toxicity at high concentration”, the Cell viability at 0.3 μM was 94%, the Cell viability at 3 μM was found to be 87% and the Cell viability at 30 μM is 69%. Moreover, the “Angiogenic modulating activity (in words)” value in the data set on rat aortic ring is recorded as “anti-angiogenic activity at all concentrations tested”.

As for `O=C1NC(=S)CCC1N1C(=O)c2ccccc2C1=S` (stereo not shown) [Compound 215, 2,3-dihydro-3-thioxo-2-(2-oxo-6-thioxo-3-piperidinyl)-1H-isoindol-1-one], in the data set on TNF-α, 11 µM corresponded to half-maximal inhibition (IC50) and the “TNF-α inhibitory activity (in words)” value is “potently inhibited TNF-α secretion”. Moreover, the inhibition at 30 µM with TNF-α (30 μM) was determined as 61%. Moreover, in the data set on PBMC, the “Toxicity / cytotoxicity (in words)” value is listed as “without toxicity”, the Cell viability at 0.3 μM stood at 94%, the Cell viability at 3 μM was 87% and the Cell viability at 30 μM is over 100%. For the same compound, in the data set on 3′-UTR of human TNF-α, the “Luciferase reporter activity, +3′-UTR versus −3′-UTR cells (in words)” value is “differential effect on the two cell lines in a dose-dependent manner”.

For the compound `O=C1c2ccccc2C(=S)N1C1CCC(=S)NC1=S` (stereo not shown) [Compound 216, 2,3-Dihydro-3-thioxo-2-(2,6-dithioxo-3-piperidinyl)-1H-isoindol-1-one], in the data set with TNF-α, the concentration for half-maximal inhibition (IC50) came to 6 µM, the “TNF-α inhibitory activity (in words)” value is “potently inhibited TNF-α secretion” and the “Fold more active than thalidomide 201” value is on record as “over 30 fold”. In the data set on TNF-α (30 μM), this compound came in with an inhibition at 30 µM of 79%. In the data set on PBMC, the “Toxicity / cytotoxicity (in words)” value was “without accompanying toxicity”, the Cell viability at 0.3 μM worked out at 90%, the Cell viability at 3 μM is 86% and the Cell viability at 30 μM was 94%. Further, the “Luciferase reporter activity, +3′-UTR versus −3′-UTR cells (in words)” value in the data set with 3′-UTR of human TNF-α was “differential effect on the two cell lines in a dose-dependent manner”. Also, the “Angiogenic modulating activity (in words)” value in the data set on rat aortic ring was “potent anti-antigiogenic activity at higher concentrations and angiogenic activity at lower concentrations”.

In turn, `S=C1CCCC(=S)N1` [Compound 219, 2,6-Piperidinedithione] had a melting point of 103 °C. In the data set on TNF-α, half-maximal inhibition (IC50) required 8 µM, the “TNF-α inhibitory activity (in words)” value is reported as “potent inhibitory effect; also recorded: potently inhibited TNF-α secretion” and the “Fold more active than thalidomide 201” value is listed as 25 fold. Further, in the data set on TNF-α (30 μM), the inhibition at 30 µM is 75%. Moreover, in the data set on PBMC, the “Toxicity / cytotoxicity (in words)” value was “lack of toxicity; also recorded: without toxicity”, the Cell viability at 0.3 μM worked out at 99%, the Cell viability at 3 μM is 98% and the Cell viability at 30 μM was over 100%. The “Luciferase reporter activity, +3′-UTR versus −3′-UTR cells (in words)” value in the data set with 3′-UTR of human TNF-α was “differential effect on the two cell lines in a dose-dependent manner”.
